In brackets after ≈: the same amount, converted by molar mass.
Tests used:
male mice (ddY) = test: Acute oral toxicity in mice; settings: conclusion in words from Table 5
Experimental: (§1) A solution containing each of compounds 1, 2 and 3 of this invention in various concentrations was orally given to male mice (ddY) at a dose of 0.1 ml per 10 g of body weight. The number of dead mice was counted after 7 days, and the value of median lethal dose (LD50, mg/kg) was calculated in accordance with the Behrens-Kaerber method.

[1] = Acute oral toxicity in mice; settings: mouse, in vivo, po
Experimental: as §1

Ac. calcoaceticus P-6901 = test: In vitro antibacterial activity, twofold agar-dilution method; type: cell-based; settings: Acinetobacter calcoaceticus, P6901; Ac. calcoaceticus P-6901 (Gram -); Mueller-Hinton agar, 20 h, 37° C.; calculated for free base; read-out: minimum inhibitory concentration (MIC)
Experimental: (§2) The numbers in the table show minimum inhibitory concentrations (MIC) (μg/ml), calculated for free base. The minimum inhibitory concentration was determined by the twofold agar-dilution method, which was recommended by Japan Society of Chemotherapy (Chemotherapy, 29(1), 76(1981)), using Muller-Hinton agar. One loopful of an overnight culture of test organisms in Mueller-Hinton broth was inoculated onto 10-ml drug-containing agar layers in petri dishes. Bacterial inocula contained approximately 10^6 colonyl-formingunits. Bacterial growth was observed after 20-hour incubation at 37° C. The MIC was defined as the lowest drug concentration which prevented visible bacterial growth.

S. epidermidis No. 8 = test: as above; type: cell-based; settings: Staphylococcus epidermidis; S. epidermidis No. 8 (Gram +); Mueller-Hinton agar, 20 h, 37° C.; calculated for free base; read-out: minimum inhibitory concentration (MIC)
Experimental: as §2

P. aeruginosa No. 12 = test: as above; type: cell-based; settings: Pseudomonas aeruginosa; P. aeruginosa No. 12 (Gram -); Mueller-Hinton agar, 20 h, 37° C.; calculated for free base; read-out: minimum inhibitory concentration (MIC)
Experimental: as §2

Al. faecalis P-7001 = test: as above; type: cell-based; settings: Alcaligenes faecalis, P7001; Al. faecalis P-7001 (Gram -); Mueller-Hinton agar, 20 h, 37° C.; calculated for free base; read-out: minimum inhibitory concentration (MIC)
Experimental: as §2

S. aureus No. 80 = test: as above; type: cell-based; settings: Staphylococcus aureus; S. aureus No. 80 (Gram +); Mueller-Hinton agar, 20 h, 37° C.; calculated for free base; read-out: minimum inhibitory concentration (MIC)
Experimental: as §2

E. coli P-51213 = test: as above; type: cell-based; settings: Escherichia coli, P51213; E. coli P-51213 (Gram -); Mueller-Hinton agar, 20 h, 37° C.; calculated for free base; read-out: minimum inhibitory concentration (MIC)
Experimental: as §2

S. aureus No. 50774 = test: as above; type: cell-based; settings: Staphylococcus aureus; S. aureus No. 50774 (Gram +); Mueller-Hinton agar, 20 h, 37° C.; calculated for free base; read-out: minimum inhibitory concentration (MIC)
Experimental: as §2

B. subtilis PCI 219 = test: as above; type: cell-based; settings: Bacillus subtilis, PCI219; B. subtilis PCI 219 (Gram +); Mueller-Hinton agar, 20 h, 37° C.; calculated for free base; read-out: minimum inhibitory concentration (MIC)
Experimental: as §2

S. aureus 209P JC-1 = test: as above; type: cell-based; settings: Staphylococcus aureus; S. aureus 209P JC-1 (Gram +); Mueller-Hinton agar, 20 h, 37° C.; calculated for free base; read-out: minimum inhibitory concentration (MIC)
Experimental: as §2

M. bovis P-7101 = test: microbe, parasite or virus in culture; type: cell-based; settings: Mycobacterium tuberculosis variant bovis, P7101, 20 h, read-out: minimum inhibitory concentration (MIC)
[2] = system: Pseudomonas aeruginosa 12; test: In vivo efficacy against systemic infections in mice; design: species or system Pseudomonas aeruginosa; male mice (ddY-S); settings: Pseudomonas aeruginosa, 12, 168 h, oral, intraperitoneal infection about 5×10^3 cells, 4% mucin, twice, immediately and 6 h after infection, 7 days, calculated for free base, read-out: median effective dose (ED50)
Experimental: (§3) Compounds were each dissolved in deionized water. Each of the solutions was orally administered to mice infected with each of the test organisms under the conditions shown hereinbelow, and the median effective dose (ED50) was calculated by probit analysis. The numerals in the table show ED50 (mg/kg) value, calculated for free base.
(§4) Mice: Male mice (ddY-S) weighing about 20 g
Pseudomonas aeruginosa 12
Intraperitoneal infection with about 5×10^3 cells per mouse suspended in tryptosoy broth with 4% mucin.
(§5) Four times, immediately, 6, 24 and 30 hours after infection in case of Streptococcus pneumoniae 1 Neufeld. Twice, immediately and 6 hours after infection in case of other organisms.
(§6) For 14 days in case of Staphylococcus aureus 50774 and Streptocuccus pneumoniae 1 Neufeld. For 7 days in case of other organisms.

[3] = system: Streptococcus pyogenes A65; test: as above; design: species or system Streptococcus pyogenes; male mice (ddY-S); settings: A65, 168 h, oral, intraperitoneal infection 3×10^7 cells, twice, immediately and 6 h after infection, 7 days, calculated for free base, read-out: median effective dose (ED50)
Experimental: as §3, §4
Streptococcus pyogenes A65
Intraperitoneal infection with 3×10^7 cells per mouse suspended in brain heart infusion broth.
as §5, §6

Row | SMILES | oral toxicity (male mice (ddY)) | LD50 at 168 h [1] | MIC (Ac. calcoaceticus P-6901) | MIC (S. epidermidis No. 8) | MIC (P. aeruginosa No. 12) | MIC (Al. faecalis P-7001) | MIC (S. aureus No. 80) | MIC (E. coli P-51213) | MIC (S. aureus No. 50774) | MIC (B. subtilis PCI 219) | MIC (S. aureus 209P JC-1) | MIC (M. bovis P-7101) | ED50 [2] | ED50 [3]
1 | CC1CN(c2c(F)c(N)c3c(=O)c(C(=O)O)cn(C4CC4)c3c2F)CC(C)N1 (stereo not drawn) [Compound 2, 5-Amino-1-cyclopropyl-6,8-difluoro-7-(3,5-dimethyl-1-piperazinyl)-1,4-dihydro-4-oxoquinoline-3-carboxylic acid] | low oral toxicity | > 2000 mg/kg | 0.0125 µg/mL (≈ 0.0319 µM) | 0.025 µg/mL (≈ 0.0637 µM) | 0.2 µg/mL (≈ 0.51 µM) | 0.2 µg/mL (≈ 0.51 µM) | 0.0125 µg/mL (≈ 0.0319 µM) | 0.05 µg/mL (≈ 0.127 µM) | 0.025 µg/mL (≈ 0.0637 µM) | 0.05 µg/mL (≈ 0.127 µM) | 0.05 µg/mL (≈ 0.127 µM) | 0.39 µg/mL (≈ 0.994 µM) | – | –
2 | Nc1c(F)c(N2CCNCC2)c(F)c2c1c(=O)c(C(=O)O)cn2C1CC1 [Compound 3, 5-Amino-1-cyclopropyl-6,8-difluoro-7-(1-piperazinyl)-1,4-dihydro-4-oxoquinoline-3-carboxylic acid] | low oral toxicity | > 2000 mg/kg | 0.05 µg/mL (≈ 0.137 µM) | 0.05 µg/mL (≈ 0.137 µM) | 0.2 µg/mL (≈ 0.549 µM) | 0.2 µg/mL (≈ 0.549 µM) | 0.05 µg/mL (≈ 0.137 µM) | 0.1 µg/mL (≈ 0.274 µM) | 0.05 µg/mL (≈ 0.137 µM) | 0.1 µg/mL (≈ 0.274 µM) | 0.05 µg/mL (≈ 0.137 µM) | 0.39 µg/mL (≈ 1.07 µM) | – | –
3 | CN1CCN(c2c(F)c(N)c3c(=O)c(C(=O)O)cn(C4CC4)c3c2F)CC1 [Compound 4, 5-Amino-1-cyclopropyl-6,8-difluoro-7-(4-methyl-1-piperazinyl)-1,4-dihydro-4-oxoquinoline-3-carboxylic acid] | – | – | 0.025 µg/mL (≈ 0.0661 µM) | 0.05 µg/mL (≈ 0.132 µM) | 0.2 µg/mL (≈ 0.529 µM) | 0.2 µg/mL (≈ 0.529 µM) | 0.025 µg/mL (≈ 0.0661 µM) | 0.1 µg/mL (≈ 0.264 µM) | 0.05 µg/mL (≈ 0.132 µM) | 0.1 µg/mL (≈ 0.264 µM) | 0.1 µg/mL (≈ 0.264 µM) | 0.39 µg/mL (≈ 1.03 µM) | – | –
4 | CCN1CCN(c2c(F)c(N)c3c(=O)c(C(=O)O)cn(C4CC4)c3c2F)CC1 [Compound 5, 5-Amino-1-cyclopropyl-6,8-difluoro-7-(4-ethyl-1-piperazinyl)-1,4-dihydro-4-oxoquinoline-3-carboxylic acid] | – | – | 0.0125 µg/mL (≈ 0.0319 µM) | 0.05 µg/mL (≈ 0.127 µM) | 0.39 µg/mL (≈ 0.994 µM) | 0.2 µg/mL (≈ 0.51 µM) | 0.025 µg/mL (≈ 0.0637 µM) | 0.05 µg/mL (≈ 0.127 µM) | 0.025 µg/mL (≈ 0.0637 µM) | 0.1 µg/mL (≈ 0.255 µM) | 0.05 µg/mL (≈ 0.127 µM) | 0.39 µg/mL (≈ 0.994 µM) | – | –
5 | Nc1c(F)c(N2CCNC(CF)C2)c(F)c2c1c(=O)c(C(=O)O)cn2C1CC1 (stereo not drawn) [Compound 6, 5-Amino-1-cyclopropyl-6,8-difluoro--7-(3-fluoromethyl-1-piperazinyl)-1,4-dihydro-4-oxoquinoline-3-carboxylic acid] | – | – | 0.0063 µg/mL (≈ 0.0159 µM) | 0.025 µg/mL (≈ 0.0631 µM) | 0.2 µg/mL (≈ 0.505 µM) | 0.05 µg/mL (≈ 0.126 µM) | 0.0063 µg/mL (≈ 0.0159 µM) | 0.05 µg/mL (≈ 0.126 µM) | 0.0125 µg/mL (≈ 0.0315 µM) | 0.025 µg/mL (≈ 0.0631 µM) | 0.025 µg/mL (≈ 0.0631 µM) | 0.1 µg/mL (≈ 0.252 µM) | – | –
6 | CCn1cc(C(=O)O)c(=O)c2c(N)c(F)c(N3CCNCC3)c(F)c21 [Compound A, 5-amino-1-ethyl-6,8-difluoro-7-(1-piperazinyl)-1,4-dihydro-4-oxoquinoline-3-carboxylic acid, reference compound] | – | – | 0.2 µg/mL (≈ 0.568 µM) | 0.39 µg/mL (≈ 1.11 µM) | 0.78 µg/mL (≈ 2.21 µM) | 0.78 µg/mL (≈ 2.21 µM) | 0.2 µg/mL (≈ 0.568 µM) | 0.39 µg/mL (≈ 1.11 µM) | 0.2 µg/mL (≈ 0.568 µM) | 0.39 µg/mL (≈ 1.11 µM) | 0.2 µg/mL (≈ 0.568 µM) | 3.13 µg/mL (≈ 8.88 µM) | 15 mg/kg | > 25 mg/kg
